Test results taken from article PMC12752747, “ENT3: A lysosomal urate transporter regulating urate disposition and macrophage inflammation” (iScience, 2025).

T1: ENT3 (equilibrative nucleoside transporter 3), ENT3-AA construct (Homo sapiens, UniProt Q9BZD2, L31A/L32A)
T1 construct: gene SLC29A3; ENT3-AA: full-length ENT3 redirected to the plasma membrane, dileucine L31L32 replaced with A31A32
T1 sequence (Q9BZD2 1-475 L31A/L32A): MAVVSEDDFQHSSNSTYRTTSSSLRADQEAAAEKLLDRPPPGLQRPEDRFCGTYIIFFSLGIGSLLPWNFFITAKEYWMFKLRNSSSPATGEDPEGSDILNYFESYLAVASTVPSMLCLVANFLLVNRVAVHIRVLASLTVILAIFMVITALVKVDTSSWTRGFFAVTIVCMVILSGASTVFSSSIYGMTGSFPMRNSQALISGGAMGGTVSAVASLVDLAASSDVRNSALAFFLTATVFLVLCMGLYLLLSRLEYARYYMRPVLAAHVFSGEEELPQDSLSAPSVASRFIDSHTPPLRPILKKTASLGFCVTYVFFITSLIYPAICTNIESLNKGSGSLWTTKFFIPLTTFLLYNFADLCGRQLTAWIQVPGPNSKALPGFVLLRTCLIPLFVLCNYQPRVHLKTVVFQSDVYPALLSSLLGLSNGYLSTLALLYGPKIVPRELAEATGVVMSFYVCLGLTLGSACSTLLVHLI


What was measured:
[1] = target: T1, ENT3 (equilibrative nucleoside transporter 3), ENT3-AA construct; test: inhibition of […]urate ([…]) uptake in HEK293 cells transiently expressing ENT3-AA, pH […]; type: cell-based
[2] = substrate: O=c1[nH]c(=O)c2[nH]c(=O)[nH]c2[nH]1; test: cells, lysate or membranes; type: cell-based, Homo sapiens; details: proton-coupled transport

Row | IC50 [1] [µM] | Molecule | Km [2] [µM]
1 | 7.71 | OCCN(CCO)c1nc(N2CCCCC2)c2nc(N(CCO)CCO)nc(N3CCCCC3)c2n1 [dipyridamole] | 
2 | 21.7 | O=[N+]([O-])c1ccc(CSc2ncnc3c2ncn3C2OC(CO)C(O)C2O)cc1 (stereo not drawn) [nitrobenzylthioinosine] | 
3 |  | ENT3 (equilibrative nucleoside transporter 3), ENT3-AA construct (Homo sapiens; L31A/L32A) (protein, ENT3-AA: full-length ENT3 redirected to the plasma membrane, dileucine L31L32 replaced with A31A32) MAVVSEDDFQHSSNSTYRTTSSSLRADQEAAAEKLLDRPPPGLQRPEDRFCGTYIIFFSLGIGSLLPWNFFITAKEYWMFKLRNSSSPATGEDPEGSDILNYFESYLAVASTVPSMLCLVANFLLVNRVAVHIRVLASLTVILAIFMVITALVKVDTSSWTRGFFAVTIVCMVILSGASTVFSSSIYGMTGSFPMRNSQALISGGAMGGTVSAVASLVDLAASSDVRNSALAFFLTATVFLVLCMGLYLLLSRLEYARYYMRPVLAAHVFSGEEELPQDSLSAPSVASRFIDSHTPPLRPILKKTASLGFCVTYVFFITSLIYPAICTNIESLNKGSGSLWTTKFFIPLTTFLLYNFADLCGRQLTAWIQVPGPNSKALPGFVLLRTCLIPLFVLCNYQPRVHLKTVVFQSDVYPALLSSLLGLSNGYLSTLALLYGPKIVPRELAEATGVVMSFYVCLGLTLGSACSTLLVHLI | 1150
